Results on 27 compounds are retold here after BindingDB's records for patent US9670191 (Nerviano Medical Sciences, 2017).

In general, IC50 refers to the point on the concentration scale where inhibition reaches its midpoint.

Where only a bound is given, the exact number is not on record here.

The target in this assay is T1, Cell division cycle 7-related protein kinase [58-574]/Protein DBF4 homolog A (Homo sapiens, UniProt O00311).
T1 construct: 58-574
T1 sequence (O00311 58-574): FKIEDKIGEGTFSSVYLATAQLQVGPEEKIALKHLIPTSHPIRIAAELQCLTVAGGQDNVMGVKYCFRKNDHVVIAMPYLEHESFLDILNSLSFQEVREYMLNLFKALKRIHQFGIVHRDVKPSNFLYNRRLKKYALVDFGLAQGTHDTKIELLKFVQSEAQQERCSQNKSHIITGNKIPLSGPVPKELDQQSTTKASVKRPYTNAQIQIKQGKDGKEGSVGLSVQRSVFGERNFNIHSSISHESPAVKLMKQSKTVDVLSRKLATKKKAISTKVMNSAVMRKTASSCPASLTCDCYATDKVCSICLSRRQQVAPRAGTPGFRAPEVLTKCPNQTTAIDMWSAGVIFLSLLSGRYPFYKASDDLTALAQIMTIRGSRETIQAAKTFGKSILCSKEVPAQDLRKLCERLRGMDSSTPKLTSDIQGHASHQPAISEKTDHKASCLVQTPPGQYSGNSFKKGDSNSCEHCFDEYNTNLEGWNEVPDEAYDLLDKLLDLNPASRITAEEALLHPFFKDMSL
T1 sequence (Q9UBU7 whole entry, further chain): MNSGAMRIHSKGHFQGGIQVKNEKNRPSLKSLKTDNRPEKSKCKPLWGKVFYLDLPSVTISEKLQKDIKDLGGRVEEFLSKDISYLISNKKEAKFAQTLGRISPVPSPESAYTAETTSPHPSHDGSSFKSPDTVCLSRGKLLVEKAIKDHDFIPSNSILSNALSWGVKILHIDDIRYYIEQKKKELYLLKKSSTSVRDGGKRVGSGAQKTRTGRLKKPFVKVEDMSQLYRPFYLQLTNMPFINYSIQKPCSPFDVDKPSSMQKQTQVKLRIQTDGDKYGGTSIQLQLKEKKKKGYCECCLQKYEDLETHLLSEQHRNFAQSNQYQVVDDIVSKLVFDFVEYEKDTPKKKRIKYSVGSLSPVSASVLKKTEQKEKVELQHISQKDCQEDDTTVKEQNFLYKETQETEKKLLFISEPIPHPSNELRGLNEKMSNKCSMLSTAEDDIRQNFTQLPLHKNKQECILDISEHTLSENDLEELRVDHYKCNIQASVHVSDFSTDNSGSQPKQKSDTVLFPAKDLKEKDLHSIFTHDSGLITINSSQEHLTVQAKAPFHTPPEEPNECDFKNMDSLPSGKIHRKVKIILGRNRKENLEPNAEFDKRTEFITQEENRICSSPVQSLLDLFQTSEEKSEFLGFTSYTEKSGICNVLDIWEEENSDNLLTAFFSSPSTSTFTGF
The assay is described as follows: Inhibition Assay of Cdc7 Activity. The procedure:
The assay consists of the transfer of radioactivity labeled phosphate moiety by the kinase to an acceptor substrate. The resulting 33P-labeled product is separated from unreacted tracer, transferred into a scintillation cocktail and light emitted is measured in a scintillation counter. The inhibition assay of Cdc7/Dbf4 activity is performed according to the following protocol. The MCM2 substrate is trans-phosphorylated by the Cdc7/Dbf4 complex in the presence of ATP traced with γ33-ATP. The reaction is stopped by addition of Dowex resin in the presence of formic acid. Dowex resin particles capture unreacted γ33-ATP and drag it to the bottom of the well while 33P phosphorylated MCM2 substrate remains in solution. The supernatant is collected, transferred into Optiplate plates and the extent of substrate phosphorylation is evaluated by β counting. The inhibition assay of Cdc7/Dbf4 activity was performed in 96 wells plate according to the following protocol.
For the compound `NC(=O)c1cc(-c2ccncc2)[nH]c1-c1ccccc1[N+](=O)[O-]` [US9670191, A13], the IC50 is under 1000 nM.

Consider `NC(=O)c1cc(-c2ccncc2)[nH]c1-c1cccc([N+](=O)[O-])c1` [US9670191, A14], for which the IC50 is under 1000 nM.

`NC(=O)c1cc(-c2ccncc2)[nH]c1-c1ccc([N+](=O)[O-])cc1` [US9670191, A15] displayed an IC50 of under 1000 nM.

For `N#Cc1cccc(-c2[nH]c(-c3ccncc3)cc2C(N)=O)c1` [US9670191, A23], the IC50 was under 1000 nM.

In the case of `NC(=O)c1cc(-c2ccncc2)[nH]c1-c1ccncc1` [US9670191, C3], the IC50 was under 1000 nM.

Take `NC(=O)c1cc(-c2ccnc(N)n2)[nH]c1-c1cccc2ccccc12` [US9670191, F5]: the IC50 is under 1000 nM.

In the case of `NC(=O)c1cc(-c2ccnc(N)n2)[nH]c1-c1ccc2ccccc2c1` [US9670191, F6], the IC50 was under 1000 nM.

As to `NC(=O)c1cc(-c2ccnc(N)n2)[nH]c1-c1cccs1` [US9670191, G2], the IC50 was under 1000 nM.

Compound `NC(=O)c1cc(-c2ccnc(N)n2)[nH]c1-c1cc2ccccc2s1` [US9670191, G5] registered an IC50 of under 1000 nM.

Compound `NC(=O)c1cc(-c2ccnc(N)n2)[nH]c1-c1csc2ccccc12` [US9670191, G6] registered an IC50 of under 1000 nM.

For the compound `NC(=O)c1cc(-c2ccnc(N)n2)[nH]c1-c1cc2ccccc2o1` [US9670191, G9], the IC50 is under 1000 nM.

Compound `NC(=O)c1cc(-c2ccnc(N)n2)[nH]c1-c1ccccn1` [US9670191, G12] displayed an IC50 of under 1000 nM.

`Cn1cc(-c2[nH]c(-c3ccnc(N)n3)cc2C(N)=O)c2ccccc21` [US9670191, G13]: the IC50 was under 1000 nM.

For the compound `Cn1c(-c2[nH]c(-c3ccnc(N)n3)cc2C(N)=O)cc2ccccc21` [US9670191, G14], the IC50 is under 1000 nM.

The compound `NC(=O)c1cc(-c2ccnc(N)n2)[nH]c1-c1ccc2sccc2c1` [US9670191, G15] came in with an IC50 of under 1000 nM.

Consider `CNC(=O)c1cc(-c2ccnc(N)n2)[nH]c1-c1ccccc1` [US9670191, M1], for which the IC50 was under 1000 nM.

In turn, `NC(=O)c1c(-c2ccccc2)[nH]c(-c2ccnc(N)n2)c1I` [US9670191, N3] had an IC50 of under 1000 nM.

`C=Cc1c(-c2ccnc(N)n2)[nH]c(-c2ccccc2)c1C(N)=O` [US9670191, O1] yielded an IC50 of under 1000 nM.

As to `NC(=O)c1c[nH]c(-c2ccncc2)c1` [US9670191, P1], the IC50 is under 1000 nM.

Compound `NC(=O)c1cc(-c2ccncc2)[nH]c1C1CCCCC1` [US9670191, Q1] gave an IC50 of under 1000 nM.

`CC(C)(C)OC(=O)N1CCC(c2[nH]c(-c3ccncc3)cc2C(N)=O)CC1` [US9670191, Q2] showed an IC50 of under 1000 nM.

The compound `NC(=O)c1cc(-c2ccncc2)[nH]c1C1CCNCC1` [US9670191, Q3] came in with an IC50 of under 1000 nM.

Turning to `NC(=O)c1cc(-c2ccncc2)[nH]c1Br` [US9670191, R1], the IC50 was under 1000 nM.

Compound `NC(=O)c1cc(-c2ccnc(N)n2)sc1-c1ccccc1` [US9670191, S1] showed an IC50 of under 1000 nM.

`NC(=O)c1cc(-c2ccnc(N)n2)oc1-c1ccccc1` [US9670191, T1]: the IC50 was under 1000 nM.

Compound `NC(=O)c1cc(-c2nc(N)ncc2F)[nH]c1-c1ccccc1` [US9670191, V1] had an IC50 of under 1000 nM.

In turn, `NC(=O)c1c(-c2ccccc2)[nH]c(-c2ccnc(N)n2)c1Cl` [US9670191, Z1] returned an IC50 of under 1000 nM.
